Assay results taken from patent US20240000872A1, “NOVEL BACTERIOPHAGE THAT LYSES ACINETOBACTER GENUS BACTERIA HAVING RESISTANCE TO ANTIBIOTICS” (priority 2020, published 2024).

Tested on: Acinetobacter baumannii strains
Experiment: Antibiotic susceptibility test (CLSI disk diffusion test method, read per CLSI 2016)
Type: cell-based
Protocol: (§1) Strain identification was performed using a kit such as AT 32 GN system (bioMérieux, Marcy l'Etoile, France). […] In Table 2 below, S, I, and R are the results obtained by evaluating susceptibility to the antibacterial agents, in which ‘S’ means susceptible, ‘I’ means intermediate, and ‘R’ means resistant.
as §1, with “as ATB” for “as AT”, “system (bioMédrieux,” for “system (bioMérieux,”, “Table 6” for “Table 2”
as §1, with “as ATB” for “as AT”, “Table 10” for “Table 2”, “susceptible, T” for “susceptible, ‘I’”

## C[C@@H](O)[C@H]1C(=O)N2C(C(=O)O)=C(S[C@@H]3CN[C@H](C(=O)N(C)C)C3)[C@H](C)[C@H]12 [Meropenem, meropenem]
Host strain YMC14/01/C29
  antibiotic susceptibility class: R
Host strain YMC14/01/IP122
  antibiotic susceptibility class: R
Host strain YMC14/01/L8
  antibiotic susceptibility class: R
Host strain YMC14/01/P31
  antibiotic susceptibility class: R
Host strain YMC14/01/P117
  antibiotic susceptibility class: R
Host strain YMC14/01/P224
  antibiotic susceptibility class: R
Host strain YMC14/01/P727
  antibiotic susceptibility class: R
Host strain YMC14/01/P728
  antibiotic susceptibility class: R
Host strain YMC14/01/R130
  antibiotic susceptibility class: R
Host strain YMC14/01/R160
  antibiotic susceptibility class: R
Host strain YMC14/01/R198
  antibiotic susceptibility class: R
Host strain YMC14/01/R257
  antibiotic susceptibility class: R
Host strain YMC14/01/R270
  antibiotic susceptibility class: R
Host strain YMC14/01/R324
  antibiotic susceptibility class: R
Host strain YMC14/01/R443
  antibiotic susceptibility class: R
Host strain YMC14/01/R451
  antibiotic susceptibility class: R
Host strain YMC14/01/R560
  antibiotic susceptibility class: R
Host strain YMC14/01/R617
  antibiotic susceptibility class: R
Host strain YMC14/01/R671
  antibiotic susceptibility class: R
Host strain YMC14/01/R732
  antibiotic susceptibility class: R
Host strain YMC14/01/R767
  antibiotic susceptibility class: R
Host strain YMC14/01/R904
  antibiotic susceptibility class: R
Host strain YMC14/01/R905
  antibiotic susceptibility class: R
Host strain YMC14/01/R921
  antibiotic susceptibility class: R
Host strain YMC14/01/R941
  antibiotic susceptibility class: R
Host strain YMC14/01/R958
  antibiotic susceptibility class: R
Host strain YMC14/01/R1006
  antibiotic susceptibility class: R
Host strain YMC14/01/R1199
  antibiotic susceptibility class: R
Host strain YMC14/01/R1659
  antibiotic susceptibility class: R
Host strain YMC14/01/R1722
  antibiotic susceptibility class: R
Host strain YMC14/01/R1752
  antibiotic susceptibility class: R
Host strain YMC14/01/R2429
  antibiotic susceptibility class: R
Host strain YMC14/01/R2572
  antibiotic susceptibility class: R
Host strain YMC14/01/R2855
  antibiotic susceptibility class: R
Host strain YMC14/01/R2945
  antibiotic susceptibility class: R
Host strain YMC14/01/R3007
  antibiotic susceptibility class: R
Host strain YMC14/01/R3129
  antibiotic susceptibility class: R
Host strain YMC14/01/R3317
  antibiotic susceptibility class: R
Host strain YMC14/01/R3474
  antibiotic susceptibility class: R
Host strain YMC14/01/R3574
  antibiotic susceptibility class: R
Host strain YMC14/01/U313
  antibiotic susceptibility class: R
Host strain YMC14/01/U318
  antibiotic susceptibility class: R
Host strain YMC14/02/L18
  antibiotic susceptibility class: R
Host strain YMC14/02/P47
  antibiotic susceptibility class: R
Host strain YMC14/02/R1860
  antibiotic susceptibility class: R
Host strain YMC14/02/R2417
  antibiotic susceptibility class: R
Host strain YMC14/02/R2599
  antibiotic susceptibility class: R
Host strain YMC14/02/R2668
  antibiotic susceptibility class: R
Host strain YMC14/02/R2758
  antibiotic susceptibility class: R
Host strain YMC14/02/R2781
  antibiotic susceptibility class: R
Host strain YMC14/02/R3106
  antibiotic susceptibility class: R
Host strain YMC14/02/R3419
  antibiotic susceptibility class: R
Host strain YMC14/02/U1607
  antibiotic susceptibility class: R
Host strain YMC14/03/L9
  antibiotic susceptibility class: R
Host strain YMC14/03/P471
  antibiotic susceptibility class: R
Host strain YMC14/03/R122
  antibiotic susceptibility class: R
Host strain YMC14/03/R217
  antibiotic susceptibility class: R
Host strain YMC14/03/R380
  antibiotic susceptibility class: R
Host strain YMC14/03/R618
  antibiotic susceptibility class: R
Host strain YMC14/03/R2144
  antibiotic susceptibility class: R
Host strain YMC14/03/U4616
  antibiotic susceptibility class: R
Host strain YMC14/04/R1078
  antibiotic susceptibility class: R
Host strain YMC14/04/R1080
  antibiotic susceptibility class: R
Host strain YMC14/06/R2359
  antibiotic susceptibility S/I/R: R
  susceptibility category (S/I/R): R
Host strain YMC14/08/R1169
  antibiotic susceptibility S/I/R: R
  susceptibility category (S/I/R): R
Host strain YMC14/08/T90
  antibiotic susceptibility S/I/R: R
  susceptibility category (S/I/R): R
Host strain YMC15/02/R436
  antibiotic susceptibility S/I/R: R
  susceptibility category (S/I/R): R
Host strain YMC15/02/T28
  antibiotic susceptibility S/I/R: R
  susceptibility category (S/I/R): R
Host strain YMC15/03/R1604
  antibiotic susceptibility S/I/R: R
  susceptibility category (S/I/R): R
Host strain YMC15/09/R1869
  antibiotic susceptibility S/I/R: R
  susceptibility category (S/I/R): R
Host strain YMC16/01/P11
  antibiotic susceptibility S/I/R: R
  susceptibility category (S/I/R): R
Host strain YMC16/01/R123
  antibiotic susceptibility S/I/R: R
  susceptibility category (S/I/R): R
Host strain YMC16/01/R198
  antibiotic susceptibility S/I/R: R
  susceptibility category (S/I/R): R
Host strain YMC16/01/R353
  antibiotic susceptibility S/I/R: R
  susceptibility category (S/I/R): R
Host strain YMC16/01/R380
  antibiotic susceptibility S/I/R: R
  susceptibility category (S/I/R): R
Host strain YMC16/01/R397
  antibiotic susceptibility S/I/R: R
  susceptibility category (S/I/R): R
Host strain YMC16/01/R405
  antibiotic susceptibility S/I/R: R
  susceptibility category (S/I/R): R
Host strain YMC16/03/R4461
  antibiotic susceptibility S/I/R: R
  susceptibility category (S/I/R): R
Host strain YMC16/05/R2210
  antibiotic susceptibility S/I/R: R
  susceptibility category (S/I/R): R
Host strain YMC16/07/R2512
  antibiotic susceptibility S/I/R: R
  susceptibility category (S/I/R): R
Host strain YMC16/09/R2471
  antibiotic susceptibility S/I/R: R
  susceptibility category (S/I/R): R
Host strain YMC16/10/R2537
  antibiotic susceptibility S/I/R: R
  susceptibility category (S/I/R): R
Host strain YMC16/12/B11422
  antibiotic susceptibility S/I/R: R
  susceptibility category (S/I/R): R
Host strain YMC16/12/B11449
  antibiotic susceptibility S/I/R: R
  susceptibility category (S/I/R): R
Host strain YMC16/12/B13325
  antibiotic susceptibility S/I/R: R
  susceptibility category (S/I/R): R
Host strain YMC16/12/P503
  antibiotic susceptibility S/I/R: R
  susceptibility category (S/I/R): R
Host strain YMC16/12/R4637
  antibiotic susceptibility S/I/R: R
  susceptibility category (S/I/R): R
Host strain YMC17/01/B8053
  antibiotic susceptibility S/I/R: R
  susceptibility category (S/I/R): R
Host strain YMC17/01/B10087
  antibiotic susceptibility S/I/R: R
  susceptibility category (S/I/R): R
Host strain YMC17/01/B12075
  antibiotic susceptibility S/I/R: R
  susceptibility category (S/I/R): R
Host strain YMC17/01/B13454
  antibiotic susceptibility S/I/R: R
  susceptibility category (S/I/R): R
Host strain YMC17/01/P518
  antibiotic susceptibility S/I/R: R
  susceptibility category (S/I/R): R
Host strain YMC17/01/R2812
  antibiotic susceptibility S/I/R: R
  susceptibility category (S/I/R): R
Host strain YMC17/02/B14
  antibiotic susceptibility S/I/R: R
  susceptibility category (S/I/R): R
Host strain YMC17/02/B87
  antibiotic susceptibility S/I/R: R
  susceptibility category (S/I/R): R
Host strain YMC17/02/B721
  antibiotic susceptibility S/I/R: R
  susceptibility category (S/I/R): R
Host strain YMC17/02/B4039
  antibiotic susceptibility S/I/R: R
  susceptibility category (S/I/R): R
Host strain YMC17/02/B4520
  antibiotic susceptibility S/I/R: R
  susceptibility category (S/I/R): R
Host strain YMC17/02/B4864
  antibiotic susceptibility S/I/R: S
  susceptibility category (S/I/R): S
Host strain YMC17/02/B8414
  antibiotic susceptibility S/I/R: R
  susceptibility category (S/I/R): R
Host strain YMC17/02/P523
  antibiotic susceptibility S/I/R: R
  susceptibility category (S/I/R): R
Host strain YMC17/02/R541
  antibiotic susceptibility S/I/R: R
  susceptibility category (S/I/R): R
Host strain YMC17/02/R2392
  antibiotic susceptibility S/I/R: R
  susceptibility category (S/I/R): R
Host strain YMC17/03/B4730
  antibiotic susceptibility S/I/R: R
  susceptibility category (S/I/R): R
Host strain YMC17/03/B5000
  antibiotic susceptibility S/I/R: R
  susceptibility category (S/I/R): R
Host strain YMC17/03/P971
  antibiotic susceptibility S/I/R: R
  susceptibility category (S/I/R): R
Host strain YMC17/03/R348
  antibiotic susceptibility S/I/R: R
  susceptibility category (S/I/R): R
Host strain YMC17/03/R585
  antibiotic susceptibility S/I/R: R
  susceptibility category (S/I/R): R
Host strain YMC17/03/R1888
  antibiotic susceptibility S/I/R: R
  susceptibility category (S/I/R): R
Host strain YMC17/03/R3279
  antibiotic susceptibility S/I/R: R
  susceptibility category (S/I/R): R
Host strain YMC17/03/R4077
  antibiotic susceptibility S/I/R: R
  susceptibility category (S/I/R): R
Host strain YMC17/03/R4607
  antibiotic susceptibility S/I/R: R
  susceptibility category (S/I/R): R
Host strain YMC17/04/R488
  antibiotic susceptibility S/I/R: R
  susceptibility category (S/I/R): R
Host strain YMC17/04/R640
  antibiotic susceptibility S/I/R: R
  susceptibility category (S/I/R): R
Host strain YMC/17/05/R1095
  antibiotic susceptibility S/I/R: R
  susceptibility category (S/I/R): R
